From US6166067A, “Inhibitors of cholesterol-biosynthesis for reducing the cholesterol content of poultry eggs” (priority 1998, dated 2000)

How the values were obtained:
cholesterol = details: high doses; cited from earlier work
[1] = tested on: triglycerides in the yolk; experiment: Triglycerides in egg yolk, laying-hen feeding trial (Example 1); type: in vivo, laying hens (Lohmann Selected Leghorn); details: both dosages (1500 and 15000 mg/kg feed); 4 weeks
Procedure: At the start of the trial, the laying hens (Lohmann Selected Leghorn) had been laying for 28 weeks. One treatment group consisted of 10 hens. The birds were initially fed with the various active ingredients for 4 weeks. The eggs were then collected for the analyses. 3 independent yolk pools were formed from 6 eggs in each case and were deep-frozen until analyzed. Total cholesterol and triglycerides in the yolk were analyzed by enzymatic methods. The analyses were carried out as stated in the handbook "Veterinarmedizinische Laboruntersuchungen fur die Diagnose und Verlaufskontrolle" (1985), 3rd edition, published by Boehringer Mannheim GmbH, Mannheim.
(§1) The triglycerides are determined enzymatically via their glycerol content. The triglycerides are cleaved enzymatically by the enzymes lipase and esterase. The resulting glycerol is phosphorylated by ATP to glycerol 3-phosphate in the reaction catalyzed by glycerol kinase GK.
glycerol+ATP.revreaction.glycerol 3-phosphate+ADP
The resulting ADP is converted by pyruvate kinase (PK) with phosphoenolpyruvate (PEP) back into ATP, with formation of pyruvate. [drawing 6] Pyruvate is hydrogenated to lactate by lactate dehydrogenase (LDH) with NADH, the NADH being oxidized to NAD. [drawing 7]
The amount of NADH consumed during the reaction is equivalent to the amount of glycerol. NADH is the measured variable and can easily be determined from its absorption at Hg 366 nm, Hg 334 nm or 340 nm.
The data were subjected to analysis of variance, and differences between means were ranged by the Duncan test.

cholesterol in yolk = experiment: Cholesterol in egg yolk, laying-hen feeding trial (Example 2); type: in vivo, laying hens; details: for Cholesterol, yolk: control 10.23
Description: (§2) For the cholesterol determination, the cholesterol esters were cleaved to cholesterol and fatty acid by the action of cholesterol esterase. Free cholesterol is converted by atmospheric oxygen with the involvement of cholesterol oxidase into Δ^4 -cholestenone and hydrogen peroxide. The resulting hydrogen peroxide forms with 4-aminophenazone and phenol through the catalytic action of peroxidase a red dye whose intensity of color is directly proportional to the cholesterol concentration and can be measured at 500 to 550 nm.
(§3) Another feeding experiment was carried out in analogy to Example 1. In this case the intention was to test not only α- and δ-tocotrienol but also a tocotrienol precursor (4-oxo-γ-tocotrienol) and other terpenoids such as farnesyl acetate, perillyl alcohol, linalool and β-ionone, in laying hens.
(§4) The trial protocol corresponds to that in Example 1 but with the following amendments:
(§5) The number of birds comprised 8 hens per treatment.
(§6) Triglyceride and cholesterol were determined in 4 independent yolk pools(each from 6 eggs) and plasma.

plasma cholesterol = experiment: Cholesterol in plasma, laying-hen feeding trial (Example 2); type: in vivo, laying hens; details: 500 mg/kg feed; control 125.3
Description: as §2, §3, §4, §5
(§7) 4 birds in each case from the control and the high dosages were sacrificed at the end of the trial. After taking blood to obtain plasma, the birds were completely exsanguinated. The liver was then removed and deep frozen until analyzed.
as §6

[2] = set-up: species or system laying hens; details: in vivo
Procedure: (§8) Tocopherols and tocotrienols in the yolk pools were determined by HPLC. To do this, the sample is hydrolyzed in aqueous alcoholic medium and extracted several times with diethyl ether. Quantification takes place by comparison with external standards.
as §3, §4, §7
(§9) In addition, α-, δ- and 4-oxo-γ-tocotrienol in yolk and liver (treatments 1 to 7) were determined.

triglycerides in yolk = experiment: Triglycerides in egg yolk, laying-hen feeding trial (Example 2); type: in vivo, laying hens; details: control 170.4
Procedure: as §1, §3, §4, §5, §6

[3] = tested on: cholesterol content of poultry eggs; details: literature (Huggett et al.; Beyer and Jensen); cited from earlier work
plasma triglyceride = experiment: Triglycerides in plasma, laying-hen feeding trial (Example 2); type: in vivo, laying hens; details: 500 mg/kg feed; control 2496
Procedure: as §1, §3, §4, §5, §7, §6

[4] = set-up: species or system laying hens; details: in vivo; remark: listed apart in the source
Procedure: as §8, §3, §4, §5, §9

O=C(O)c1cccnc1 [nicotinic acid, reference compound]
cholesterol-lowering effect (cholesterol): cholesterol-lowering effect
triglyceride content in the yolk [1]: significantly increased

CC(C)=CCC/C(C)=C/CC/C(C)=C/CC[C@]1(C)CCc2c(C)c(O)c(C)c(C)c2O1 [α-Tocotrienol, α-tocotrienol]
Cholesterol, yolk (cholesterol in yolk; 50 mg/kg feed): 9.85 mg/g
Cholesterol, yolk (cholesterol in yolk; 500 mg/kg feed): 9.45 mg/g
trend in yolk cholesterol content (cholesterol in yolk; Example 2): trend toward reduced cholesterol contents in yolk
Cholesterol, plasma (plasma cholesterol): 130.3 mg/dL
detectability in the birds' livers [2]: detectable in the birds' livers
Triglycerides, yolk (triglycerides in yolk; 50 mg/kg feed): 189.9 mg/g
Triglycerides, yolk (triglycerides in yolk; 500 mg/kg feed): 195.1 mg/g
effect on the cholesterol content in eggs [3]: no effect
Triglycerides, plasma (plasma triglyceride): 4195 mg/dL
effect on β-tocopherol [4]: effect on β-tocopherol only by the α-tocotrienol treatments
increase for tocotrienols in yolk [4]: most pronounced increase
